Assay results from patent US20250215029A1 (Recludix Pharma, Inc., priority 2022, published 2025).
Where two headings read alike, the source gives them in different places.

Target: T1, pY705-STAT3 in PBMC (Homo sapiens, UniProt P40763)
T1 construct: Cryopreserved Peripheral Blood Mononuclear Cells (PBMC) are from AllCells; host or cells: cryopreserved PBMC
Test: MSD-pSTAT-PBMC Assay (pSTAT3, IL-6 stimulated)
Format: cell-based
Conditions: compound 3 hrs, then 10 ng/mL IL-6 for 10 min, Table 115
Outline: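 Inhibition of cytokine-induced STAT phosphorylation was measured in recovered human PBMC after 3 hrs compound exposure and a 10 min IL-4 (1 ng/mL) or IL-6 (10 ng/mL) challenge. MSD detection of pY641-STAT6 or pY705-STAT3 yielded IC50 values.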

T1 sequence (P40763 whole entry): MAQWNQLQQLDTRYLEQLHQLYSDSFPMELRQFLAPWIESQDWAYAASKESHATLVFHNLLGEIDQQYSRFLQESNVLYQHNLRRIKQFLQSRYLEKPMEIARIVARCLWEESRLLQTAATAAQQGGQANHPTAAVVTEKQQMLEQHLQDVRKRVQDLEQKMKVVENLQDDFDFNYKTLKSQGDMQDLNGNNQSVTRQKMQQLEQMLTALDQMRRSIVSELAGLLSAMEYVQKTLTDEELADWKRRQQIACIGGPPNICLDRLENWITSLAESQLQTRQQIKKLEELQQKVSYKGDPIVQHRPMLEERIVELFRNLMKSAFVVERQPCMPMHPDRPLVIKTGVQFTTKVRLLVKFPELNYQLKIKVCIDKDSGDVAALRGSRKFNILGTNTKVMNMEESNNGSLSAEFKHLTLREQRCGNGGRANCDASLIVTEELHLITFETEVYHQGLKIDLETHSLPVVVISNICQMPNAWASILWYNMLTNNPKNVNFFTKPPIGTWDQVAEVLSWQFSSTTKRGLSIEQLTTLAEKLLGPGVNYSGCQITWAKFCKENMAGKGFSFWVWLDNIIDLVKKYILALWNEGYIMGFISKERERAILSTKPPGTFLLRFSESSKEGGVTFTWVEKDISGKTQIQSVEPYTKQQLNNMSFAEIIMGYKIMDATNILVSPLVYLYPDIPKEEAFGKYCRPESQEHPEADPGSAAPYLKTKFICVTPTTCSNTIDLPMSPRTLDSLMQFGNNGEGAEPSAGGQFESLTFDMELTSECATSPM

| Compound | IC50 (PBMC, read-out: STAT3) [nM] | IC50 (STAT3, PBMC) [nM] |
| --- | --- | --- |
| CCCOC(=O)[C@H](C)NP(=O)(Cc1ccc2sc(C(=O)N[C@H]3CCC[C@H]4CC[C@@H](C(=O)N5CC(c6cccnc6)C5)N4C3=O)cc2c1)OCCOC (stereo partly drawn) [Compound 438, propyl ((2-methoxyethoxy)((2-(((3S,6S,9aS)-5-oxo-3-(3-(pyridin-3-yl)azetidine-1-carbonyl)octahydro-1H-pyrrolo[1,2-a]azepin-6-yl)carbamoyl)benzo [b]thiophen-5-yl)methyl)phosphoryl)-L-alaninate] | 1000 to 3000 |  |
| CCCOC(=O)[C@H](C)NP(=O)(Cc1ccc2sc(C(=O)N[C@H]3CCC[C@H]4CC[C@@H](C(=O)N5CC(c6cccnc6)C5)N4C3=O)cc2c1)OCC (stereo partly drawn) [Compound 439, propyl (ethoxy((2-(((3S,6S,9aS)-5-oxo-3-(3-(pyridin-3-yl)azetidine-1-carbonyl)octahydro-1H-pyrrolo[1,2-a]azepin-6-yl)carbamoyl)benzo [b]thiophen-5-yl)methyl)phosphoryl)-L-alaninate] | 100 to 1000 |  |
| CCCOC(=O)C(C)(C)NP(=O)(Cc1ccc2sc(C(=O)N[C@H]3CCC[C@H]4CC[C@@H](C(=O)N5CC(c6cccnc6)C5)N4C3=O)cc2c1)Oc1ccccc1 (stereo partly drawn) [Compound 445, propyl 2-methyl-2-((((2-(((3S,6S,9aS)-5-oxo-3-(3-(pyridin-3-yl)azetidine-1-carbonyl)octahydro-1H-pyrrolo[1,2-a]azepin-6-yl)carbamoyl)benzo [b]thiophen-5-yl)methyl)(phenoxy)phosphoryl)amino) propanoate] |  | < 100 |
| CCCOC(=O)[C@H](C)N[P@@](=O)(Oc1ccccc1)[C@@H](F)c1ccc2sc(C(=O)N[C@H]3CCC[C@H]4CC[C@@H](C(=O)N5CC(c6cccnc6)C5)N4C3=O)cc2c1 [Compound 447] | < 100 |  |
| CCCOC(=O)[C@H](C)N[P@@](=O)(Oc1ccccc1)[C@H](F)c1ccc2sc(C(=O)N[C@H]3CCC[C@H]4CC[C@@H](C(=O)N5CC(c6cccnc6)C5)N4C3=O)cc2c1 [Compound 464] | < 100 |  |
| CCCOC(=O)[C@H](C)NP(=O)(Oc1ccccc1)[C@H](F)c1ccc2sc(C(=O)N[C@H]3CCC[C@H]4CC[C@@H](C(=O)N5CC(c6cnccc6OCC)C5)N4C3=O)cc2c1 (stereo partly drawn) [Compound 484, propyl (((S)-(2-(((3S,6S,9aS)-3-(3-(4-ethoxypyridin-3-yl)azetidine-1-carbonyl)-5-oxooctahydro-1H-pyrrolo[1,2-a]azepin-6-yl)carbamoyl)benzo [b]thiophen-5-yl)fluoromethyl) (phenoxy)phosphoryl)-L-alaninate] | < 100 |  |
| CCCOC(=O)[C@H](C)NP(=O)(Oc1ccccc1)[C@@H](F)c1ccc2sc(C(=O)N[C@H]3CC[C@@H](CC)C[C@H]4CC[C@@H](C(=O)N5CC(c6cnccc6N6CCC6)C5)N4C3=O)cc2c1 (stereo partly drawn) [Compound 493, propyl (((R)-(2-(((3S,6S,9R,10aR)-3-(3-(4-(azetidin-1-yl)pyridin-3-yl)azetidine-1-carbonyl)-9-ethyl-5-oxodecahydropyrrolo [1,2-a]azocin-6-yl)carbamoyl)benzo [b]thiophen-5-yl)fluoromethyl) (phenoxy)phosphoryl)-L-alaninate] | < 100 |  |
| CCCOC(=O)[C@H](C)NP(=O)(Oc1ccccc1)[C@@H](F)c1ccc2sc(C(=O)N[C@H]3CCC[C@H]4CC[C@@H](C(=O)N5CC(c6cnccc6OCC)C5)N4C3=O)cc2c1 (stereo partly drawn) [Compound 494, propyl (((R)-(2-(((3S,6S,9aS)-3-(3-(4-ethoxypyridin-3-yl)azetidine-1-carbonyl)-5-oxooctahydro-1H-pyrrolo[1,2-a]azepin-6-yl)carbamoyl)benzo [b]thiophen-5-yl)fluoromethyl) (phenoxy)phosphoryl)-L-alaninate] | < 100 |  |
| CCOC(=O)[C@H](CC)NP(=O)(Cc1ccc2sc(C(=O)N[C@H]3CCC[C@H]4CC[C@@H](C(=O)N5CC(c6cccnc6)C5)N4C3=O)cc2c1)Oc1ccccc1 (stereo partly drawn) [Compound 944, ethyl (2S)-2-((((2-(((3S,6S,9aS)-5-oxo-3-(3-(pyridin-3-yl)azetidine-1-carbonyl)octahydro-1H-pyrrolo[1,2-a]azepin-6-yl)carbamoyl)benzo [b]thiophen-5-yl)methyl)(phenoxy)phosphoryl)amino) butanoate] | 100 to 1000 |  |
| COC[C@H](NP(=O)(Cc1ccc2sc(C(=O)N[C@H]3CCC[C@H]4CC[C@@H](C(=O)N5CC(c6cccnc6)C5)N4C3=O)cc2c1)Oc1ccccc1)C(=O)OCC(C)C (stereo partly drawn) [Compound 945, isobutyl O-methyl-N-(((2-(((3S,6S,9aS)-5-oxo-3-(3-(pyridin-3-yl)azetidine-1-carbonyl)octahydro-1H-pyrrolo[1,2-a]azepin-6-yl)carbamoyl)benzo [b]thiophen-5-yl)methyl)(phenoxy)phosphoryl)-L-serinate] | 100 to 1000 |  |
| COC[C@H](NP(=O)(Cc1ccc2sc(C(=O)N[C@H]3CCC[C@H]4CC[C@@H](C(=O)N5CC(c6cccnc6)C5)N4C3=O)cc2c1)Oc1ccccc1)C(=O)OCc1ccccc1 (stereo partly drawn) [Compound 946, benzyl O-methyl-N-(((2-(((3S,6S,9aS)-5-oxo-3-(3-(pyridin-3-yl)azetidine-1-carbonyl)octahydro-1H-pyrrolo[1,2-a]azepin-6-yl)carbamoyl)benzo [b]thiophen-5-yl)methyl)(phenoxy)phosphoryl)-L-serinate] | 100 to 1000 |  |
| CC[C@H](NP(=O)(Cc1ccc2sc(C(=O)N[C@H]3CCC[C@H]4CC[C@@H](C(=O)N5CC(c6cccnc6)C5)N4C3=O)cc2c1)Oc1ccccc1)C(=O)OCC(C)C (stereo partly drawn) [Compound 947, isobutyl (2S)-2-((((2-(((3S,6S,9aS)-5-oxo-3-(3-(pyridin-3-yl)azetidine-1-carbonyl)octahydro-1H-pyrrolo[1,2-a]azepin-6-yl)carbamoyl)benzo [b]thiophen-5-yl)methyl)(phenoxy)phosphoryl)amino) butanoate] | < 100 |  |
| CC(C)COC(=O)[C@@H](NP(=O)(Cc1ccc2sc(C(=O)N[C@H]3CCC[C@H]4CC[C@@H](C(=O)N5CC(c6cccnc6)C5)N4C3=O)cc2c1)Oc1ccccc1)C(C)C (stereo partly drawn) [Compound 948, isobutyl (((2-(((3S,6S,9aS)-5-oxo-3-(3-(pyridin-3-yl)azetidine-1-carbonyl)octahydro-1H-pyrrolo[1,2-a]azepin-6-yl)carbamoyl)benzo [b]thiophen-5-yl)methyl) (phenoxy)phosphoryl)-L-valinate] | 1000 to 3000 |  |
| CCOC(=O)[C@@H](NP(=O)(Cc1ccc2sc(C(=O)N[C@H]3CCC[C@H]4CC[C@@H](C(=O)N5CC(c6cccnc6)C5)N4C3=O)cc2c1)Oc1ccccc1)C(C)C (stereo partly drawn) [Compound 949, ethyl (((2-(((3S,6S,9aS)-5-oxo-3-(3-(pyridin-3-yl)azetidine-1-carbonyl)octahydro-1H-pyrrolo[1,2-a]azepin-6-yl)carbamoyl)benzo [b]thiophen-5-yl)methyl) (phenoxy)phosphoryl)-L-valinate] | 1000 to 3000 |  |
| CCCOC(=O)[C@H](C)NP(=O)(Oc1ccccc1)C(F)c1ccc2sc(C(=O)N[C@H]3CCCC[C@H]4CC[C@@H](C(=O)N5CC(OCC(F)F)(c6cccnc6)C5)N4C3=O)cc2c1 (stereo partly drawn) [Compound 950, propyl (((2-(((3S,6S,10aS)-3-(3-(2,2-difluoroethoxy)-3-(pyridin-3-yl)azetidine-1-carbonyl)-5-oxodeca-hydropyrrolo [1,2-a]azocin-6-yl)carbamoyl)benzo [b]thiophen-5-yl)fluoromethyl) (phenoxy)phosphoryl)-L-alaninate] | < 100 |  |
| CCCOC(=O)[C@H](C)NP(=O)(Cc1ccc2sc(C(=O)N[C@H]3CCC[C@H]4CC[C@@H](C(=O)N5CC(c6cnccc6C)C5)N4C3=O)cc2c1)Oc1ccccc1 (stereo partly drawn) [Compound 951, propyl (((2-(((3S,6S,9aS)-3-(3-(4-methylpyridin-3-yl)azetidine-1-carbonyl)-5-oxooctahydro-1H-pyrrolo[1,2-a]azepin-6-yl)carbamoyl)benzo [b]thiophen-5-yl)methyl) (phenoxy)phosphoryl)-L-alaninate] | < 100 |  |
| CCCOC(=O)[C@H](C)NP(=O)(Oc1ccccc1)C(F)c1ccc2sc(C(=O)N[C@H]3CCC[C@H]4CC[C@@H](C(=O)N5CC6(C5)OCc5ccncc56)N4C3=O)cc2c1 (stereo partly drawn) [Compound 952, propyl ((fluoro(2-(((3S,6S,9aS)-5-oxo-3-(1′H-spiro [azetidine-3,3′-furo[3,4-c]pyridine]-1-carbonyl)octahydro-1H-pyrrolo[1,2-a]azepin-6-yl)carbamoyl)benzo [b]thiophen-5-yl)methyl) (phenoxy)phosphoryl)-L-alaninate] | 100 to 1000 |  |
| CCCOC(=O)[C@H](C)NP(=O)(Oc1ccccc1)C(F)c1ccc2sc(C(=O)N[C@H]3CCC[C@H]4CC[C@@H](C(=O)N5CC(c6cc(F)ccc6OC)C5)N4C3=O)cc2c1 (stereo partly drawn) [Compound 957, propyl ((fluoro(2-(((3S,6S,9aS)-3-(3-(5-fluoro-2-methoxyphenyl)azetidine-1-carbonyl)-5-oxooctahydro-1H-pyrrolo[1,2-a]azepin-6-yl)carbamoyl)benzo [b]thiophen-5-yl)methyl)(phenoxy)phosphoryl)-L-alaninate] | > 3000 |  |
| CCCOC(=O)[C@H](C)NP(=O)(Oc1ccccc1)C(F)c1ccc2sc(C(=O)N[C@H]3CCCC[C@H]4CC[C@@H](C(=O)N[C@H]5CN(C(N)=O)C[C@@H]5F)N4C3=O)cc2c1 (stereo partly drawn) [Compound 958, propyl (((2-(((3S,6S,10aS)-3-(((3S,4S)-1-carbamoyl-4-fluoropyrrolidin-3-yl)carbamoyl)-5-oxodeca-hydropyrrolo [1,2-a]azocin-6-yl)carbamoyl)benzo [b]thiophen-5-yl)fluoromethyl) (phenoxy)phosphoryl)-L-alaninate] | 1000 to 3000 |  |
